Assay results: patent US12662470B2, “Hydroxy and (halo)alkoxy substituted tetrahydrofurans as modulators of sodium channels” (VERTEX PHARMACEUTICALS INCORPORATED, priority 2021, dated 2026)

Molecular target: human NaV 1.8 (Homo sapiens, UniProt Q9Y5Y9)
Assay: E-VIPR Assay Detecting and Measuring NaV Inhibition Properties
Format: cell-based
Details: HEK cells expressing a truncated form of human NaV 1.8
Excerpt: Sodium ion channels are voltage-dependent proteins that can be activated by inducing membrane voltage changes by applying electric fields. The electrical stimulation instrument and methods of use, referred to as E-VIPR, are described in International Publication No. WO 2002/008748 A3 and C.-J. Huang et al. Characterization of voltage-gated sodium channel blockers by electrical stimulation and fluorescence detection of membrane potential, 24 Nature Biotech. 439-46 (2006), both of which are incorporated by reference in their entirety. The instrument comprises a microtiter plate handler, an optical system for exciting the coumarin dye while simultaneously recording the coumarin and oxonol emissions, a waveform generator, a current- or voltage-controlled amplifier, and parallel electrode pairs that are inserted into assay plate wells. Under integrated computer control, this instrument passes user-programmed electrical stimulus protocols to cells within the wells of the microtiter plate.
16-20 hours prior to running the assay on E-VIPR, HEK cells expressing a truncated form of human NaV 1.8 with full channel activity were seeded into microtiter 384-well plates, pre-coated with matrigel, at a density of 25,000 cells per well. 2.5-5% KIR2.1 Bacmam virus was added to the final cell suspension before seeding into cell plates. HEK cells were grown in Dulbecco's Modified Eagle's Medium (DMEM) supplemented with 10% FBS (Fetal Bovine Serum, qualified; Sigma #F4135), 1% NEAA (Non-Essential Amino Acids, Gibco #11140), 1% HEPES (Gibco #15630), 1% Pen-Strep (Penicillin-Streptomycin; Gibco #15140) and 5 μg/ml Blasticidin (Gibco #R210-01). Cells were expanded in vented cap cell culture flasks, with 90-95% humidity and 5% CO2.
Reagents and Stock Solutions:
• 100 mg/mL Pluronic F-127 (Sigma #P2443), in dry DMSO • Compound Plates: Corning 384-well Polypropylene Round Bottom #3656 • Cell Plates: 384-well tissue culture treated plates (Greiner #781091-2B)
2.5-5% KIR 2.1 Bacmam virus (produced in-house), prepared as described in Section 3.3 of J. A. Fornwald et al., Gene Expression in Mammalian Cells Using BacMam, a Modified Baculovirus System, 1350 Methods in Molecular Biology 95-116 (2016), the entire contents of which are incorporated by reference. The concentration used can be dependent on viral titer of each batch.
5 mM DiSBAC6(3), a voltage sensitive oxonol acceptor (CAS number 169211-44-3; 5-[3-(1,3-dihexylhexahydro-4,6-dioxo-2-thioxo-5-pyrimidinyl)-2-propen-1-ylidene]-1,3-dihexyldihydro-2-thioxo-4,6(1H,5H)-pyrimidinedione), in dry DMSO. The preparation of DiSBAC6(3) is analogous to that of DiSBAC4(3) as described in Voltage Sensing by Fluorescence Resonance Energy Transfer in Single Cells, Gonzalez, J. E. and Tsien, R. Y. (1995) Biophys. J. 69, 1272-1280.
5 mM CC2-DMPE, a commercially available membrane-bound coumarin phospholipid FRET donor (ThermoFisher Scientific catalog number K1017, CAS number 393782-57-5; tetradecanoic acid, 1,1′-[(1R)-1-[8-(6-chloro-7-hydroxy-2-oxo-2H-1-benzopyran-3-yl)-3-hydroxy-3-oxido-8-oxo-2,4-dioxa-7-aza-3-phosphaoct-1-yl]-1,2-ethanediyl] ester) was prepared in dry DMSO. See also, Improved indicators of cell membrane potential that use fluorescence resonance energy transfer, Gonzalez, J. E. and Tsien, R. Y. (1997) Chem. Biol. 4, 269-277.
Voltage Assay Background Suppression Compound (VABSC-1) is prepared in H2O (89-363 mM, range used to maintain solubility)
Human Serum (HS, Millipore #S1P1-01KL, or Sigma SLBR5469V and SLBR5470V as a 50%/50% mixture, for 25% assay final concentration)
• Sodium Chloride 160 mM (9.35 g/L), Potassium Chloride, 4.5 mM (0.335 g/L), Glucose 10 mM (1.8 g/L), Magnesium Chloride (Anhydrous) 1 mM (0.095 g/L), Calcium Chloride 2 mM (0.222 g/L), HEPES 10 mM (2.38 g/L) in water. […]

[1] = compound number with "*": assay performed in the presence of human serum
[2] = compound number without "*" (not marked as run in the presence of human serum)

Sequence of human NaV 1.8 (Q9Y5Y9 126-1722 limits assumed): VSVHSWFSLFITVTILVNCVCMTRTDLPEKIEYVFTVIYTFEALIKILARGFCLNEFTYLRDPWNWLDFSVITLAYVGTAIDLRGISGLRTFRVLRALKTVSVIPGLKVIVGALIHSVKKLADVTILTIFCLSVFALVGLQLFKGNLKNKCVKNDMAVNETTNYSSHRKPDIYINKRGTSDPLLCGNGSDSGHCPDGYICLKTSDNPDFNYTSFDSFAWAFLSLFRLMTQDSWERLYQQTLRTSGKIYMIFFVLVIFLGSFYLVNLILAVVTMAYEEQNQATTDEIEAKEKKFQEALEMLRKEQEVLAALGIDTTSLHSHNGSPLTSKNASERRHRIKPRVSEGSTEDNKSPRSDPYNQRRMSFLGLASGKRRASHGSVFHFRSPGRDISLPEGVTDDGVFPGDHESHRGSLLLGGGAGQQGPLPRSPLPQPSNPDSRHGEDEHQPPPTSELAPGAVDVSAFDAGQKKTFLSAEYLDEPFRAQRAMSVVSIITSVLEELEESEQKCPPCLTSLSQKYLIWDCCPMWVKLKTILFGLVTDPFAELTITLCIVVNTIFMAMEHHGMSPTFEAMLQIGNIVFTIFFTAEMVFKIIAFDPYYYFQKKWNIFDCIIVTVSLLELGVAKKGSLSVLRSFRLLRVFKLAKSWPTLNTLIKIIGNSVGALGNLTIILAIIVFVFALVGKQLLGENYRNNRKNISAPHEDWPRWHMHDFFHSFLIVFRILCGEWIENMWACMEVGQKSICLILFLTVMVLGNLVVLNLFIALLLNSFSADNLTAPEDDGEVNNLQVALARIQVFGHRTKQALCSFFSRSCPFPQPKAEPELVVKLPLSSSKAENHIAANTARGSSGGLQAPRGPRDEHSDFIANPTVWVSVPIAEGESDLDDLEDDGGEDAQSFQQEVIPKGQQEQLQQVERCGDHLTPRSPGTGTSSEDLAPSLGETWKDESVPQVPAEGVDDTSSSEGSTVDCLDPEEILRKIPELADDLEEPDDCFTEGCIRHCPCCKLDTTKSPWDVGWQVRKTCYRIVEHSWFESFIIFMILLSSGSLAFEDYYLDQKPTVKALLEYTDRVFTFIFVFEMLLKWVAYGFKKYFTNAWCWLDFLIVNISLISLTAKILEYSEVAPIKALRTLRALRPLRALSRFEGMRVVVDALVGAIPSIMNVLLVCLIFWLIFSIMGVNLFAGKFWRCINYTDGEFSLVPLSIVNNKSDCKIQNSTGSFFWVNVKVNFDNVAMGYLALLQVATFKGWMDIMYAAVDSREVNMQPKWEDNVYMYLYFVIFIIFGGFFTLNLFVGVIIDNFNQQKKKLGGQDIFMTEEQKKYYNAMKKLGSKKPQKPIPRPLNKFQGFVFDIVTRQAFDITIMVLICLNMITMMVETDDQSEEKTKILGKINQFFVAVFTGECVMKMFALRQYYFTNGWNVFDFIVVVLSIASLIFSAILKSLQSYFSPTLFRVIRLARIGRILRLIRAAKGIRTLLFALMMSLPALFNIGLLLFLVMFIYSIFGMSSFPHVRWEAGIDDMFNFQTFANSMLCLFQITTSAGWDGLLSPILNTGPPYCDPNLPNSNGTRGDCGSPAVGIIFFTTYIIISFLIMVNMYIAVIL

Row | IC50 [1] [nM] | IC50 [2] [nM] | SMILES
1 | ≥ 1000 | – | COc1c([C@@H]2[C@H](OC)[C@H](C)O[C@H]2C(=O)Nc2ccnc([C@@](C)(O)CO)c2)ccc(F)c1F (single isomer, unassigned) [Compound 11, rel-(2R*,3R*,4S*,5S*)-3-(3,4-difluoro-2-methoxyphenyl)-N-(2-(1,2-dihydroxypropan-2-yl)pyridin-4-yl)-4-methoxy-5-methyltetrahydrofuran-2-carboxamide]
2 | – | < 10 | CO[C@H]1[C@@H](c2ccc(F)c(F)c2C)[C@H](C(=O)Nc2ccnc(C(N)=O)c2)O[C@@]1(C)C(F)(F)F [Compound 7, 4-((2R,3R,4S,5R)-3-(3,4-difluoro-2-methylphenyl)-4-methoxy-5-methyl-5-(trifluoromethyl)tetrahydrofuran-2-carboxamido)picolinamide]
3 | – | 100 to 1000 | COc1c([C@@H]2[C@H](OC)[C@H](C)O[C@H]2C(=O)Nc2ccnc(C(N)=O)c2)ccc(F)c1F [Compound 8, 4-((2R,3R,4S,5S)-3-(3,4-difluoro-2-methoxyphenyl)-4-methoxy-5-methyltetrahydrofuran-2-carboxamido)picolinamide]
4 | 100 to 1000 | – | COc1c([C@H]2[C@H](C(=O)Nc3ccnc([C@H](O)CO)c3)OC(C)(C)[C@H]2OC)ccc(F)c1F (single isomer, unassigned) [Compound 22]
